Test results: ChEMBL document CHEMBL4406896, “Pyrenocine A induces monopolar spindle formation and suppresses proliferation of cancer cells” (Bioorg Med Chem, 2019)
Blank lines part the entries; values can stand above or below the compound they belong to. Calls of active or inactive are those of the source. The rule behind the calls is not given here.

What was measured:
[1] = tested on: A549; assay: Antiproliferative activity against human A549 cells incubated for 48 hrs by WST8 assay; type: functional, cell-based; conditions: A549, 48 h
[2] = tested on: HCT-116; assay: Antiproliferative activity against human HCT116 cells incubated for 48 hrs by WST8 assay; type: functional, cell-based; conditions: HCT-116, 48 h
[3] = tested on: HeLa; assay: Antiproliferative activity against human HeLa cells incubated for 48 hrs by WST8 assay; type: functional, cell-based
[4] = tested on: Huh-7; assay: Antiproliferative activity against human HuH7 cells incubated for 48 hrs by WST8 assay; type: functional, cell-based; conditions: Huh-7, 48 h
[5] = tested on: HeLa; assay: Induction of cell cycle arrest in S phase synchronized human HeLa cells stably expressing GFP-HistoneH1 fusion protein assessed as increase in formation of ring shaped chromosomes incubated for 4 hrs by inverted fluorescence microscopic method; type: functional, cell-based
[6] = tested on: HeLa; assay: Induction of cell cycle arrest in human HeLa cells assessed as mono-polar spindles formation surrounded by ring shaped chromosomes in mitotic cells at 3 uM incubated for 6 hrs by Hoechst 33342 staining based confocal microscopic method; type: functional
[7] = target: T1, Kinesin-like protein KIF11 (Homo sapiens) (UniProt P52732); assay: Inhibition of human Eg5 motor domain (1 to 368 residues) expressed in Escherichia coli assessed as reduction in microtubule-stimulated ATPase activity at 100 uM incubated with ATP for 6 mins by malachite green method
T1 sequence (whole entry): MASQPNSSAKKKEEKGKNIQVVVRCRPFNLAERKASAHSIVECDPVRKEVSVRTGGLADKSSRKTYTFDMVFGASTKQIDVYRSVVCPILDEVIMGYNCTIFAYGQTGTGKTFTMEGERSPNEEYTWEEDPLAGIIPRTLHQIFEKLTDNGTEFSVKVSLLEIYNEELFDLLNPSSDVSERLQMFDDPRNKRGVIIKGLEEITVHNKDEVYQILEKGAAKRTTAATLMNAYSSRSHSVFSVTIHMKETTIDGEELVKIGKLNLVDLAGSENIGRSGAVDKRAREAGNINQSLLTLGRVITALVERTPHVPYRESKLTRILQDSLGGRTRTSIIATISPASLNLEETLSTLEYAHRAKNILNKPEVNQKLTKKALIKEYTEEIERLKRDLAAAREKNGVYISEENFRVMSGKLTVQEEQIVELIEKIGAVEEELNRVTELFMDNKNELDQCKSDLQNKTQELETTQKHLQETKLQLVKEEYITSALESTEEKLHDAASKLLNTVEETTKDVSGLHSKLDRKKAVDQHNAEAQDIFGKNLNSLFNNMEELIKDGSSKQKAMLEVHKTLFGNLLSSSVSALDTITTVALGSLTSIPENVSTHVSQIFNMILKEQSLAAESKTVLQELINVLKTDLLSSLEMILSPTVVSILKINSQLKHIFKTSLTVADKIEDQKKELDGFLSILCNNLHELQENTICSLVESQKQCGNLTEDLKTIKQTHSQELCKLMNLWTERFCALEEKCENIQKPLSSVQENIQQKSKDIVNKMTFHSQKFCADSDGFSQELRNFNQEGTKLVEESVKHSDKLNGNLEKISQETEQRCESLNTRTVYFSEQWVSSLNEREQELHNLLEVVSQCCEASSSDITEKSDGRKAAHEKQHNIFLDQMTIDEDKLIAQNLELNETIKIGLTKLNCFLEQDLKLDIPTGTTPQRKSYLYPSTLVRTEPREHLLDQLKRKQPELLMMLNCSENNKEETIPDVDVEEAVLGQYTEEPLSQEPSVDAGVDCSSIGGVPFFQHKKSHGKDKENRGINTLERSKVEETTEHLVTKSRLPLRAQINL

[8] = tested on: HeLa; assay: Induction of cell cycle arrest in S phase synchronized human HeLa cells stably expressing GFP-HistoneH1 fusion protein assessed as increase in total mitotic cells at 1 uM incubated for 6 hrs by inverted fluorescence microscopic method relative to control; type: functional
[9] = tested on: HeLa; assay: Induction of cell cycle arrest in S phase synchronized human HeLa cells stably expressing GFP-HistoneH1 fusion protein assessed as formation of ring shaped chromosomes at 5 uM incubated for 4 hrs by inverted fluorescence microscopic method; type: functional, cell-based
[10] = tested on: HeLa; assay: Induction of cell cycle arrest in S phase synchronized human HeLa cells stably expressing GFP-HistoneH1 fusion protein assessed as increase in total mitotic cells at 10 uM incubated for 6 hrs by inverted fluorescence microscopic method relative to control; type: functional
[11] = tested on: HeLa; assay: Induction of cell cycle arrest in human HeLa cells assessed as mono-polar spindles formation surrounded by ring shaped chromosomes in mitotic cells at 5 uM incubated for 6 hrs by Hoechst 33342 staining based confocal microscopic method; type: functional
[12] = tested on: HeLa; assay: Induction of cell cycle arrest in S phase synchronized human HeLa cells stably expressing GFP-HistoneH1 fusion protein assessed as increase in total mitotic cells at 5 uM incubated for 6 hrs by inverted fluorescence microscopic method relative to control; type: functional
[13] = tested on: HeLa; assay: Induction of cell cycle arrest in S phase synchronized human HeLa cells stably expressing GFP-HistoneH1 fusion protein assessed as chromosomes alignment at 5 uM incubated for 3 hrs by inverted fluorescence microscopic method; type: functional, cell-based
[14] = tested on: HeLa; assay: Cytotoxicity against human HeLa cells assessed as cell death at 5 to […] incubated for 48 hrs by LDH assay relative to control; type: cell-based
[15] = tested on: HeLa; assay: Induction of cell cycle arrest in S phase synchronized human HeLa cells stably expressing GFP-HistoneH1 fusion protein assessed as chromosomes division at 5 uM incubated for 3 hrs by inverted fluorescence microscopic method; type: functional, cell-based

IC50 [3]: 22300 nM
SMILES: COc1cc(=O)oc(C)c1C(=O)CC(C)O (centres undefined)

IC50 [3]: > 100000 nM
SMILES: CCCC(=O)c1c(OC)cc(=O)oc1C

IC50 [1]: 12900 nM | Activity [7]: inactive | IC50 [2]: 2600 nM | IC50 [3]: 9300 nM | IC50 [4]: 8600 nM
SMILES: C/C=C/C(=O)c1c(OC)cc(=O)oc1C
Activity [5]: Dose-dependent effect | Activity [8]: 2% | Activity [9]: Active | Activity [10]: 14% | Activity [11]: Active | Activity [12]: 7% | Activity [13]: inactive | Activity [14]: 0 to 6% | Activity [15]: inactive

More lines, now with the values behind:

SMILES: COc1cccc2c1C(=O)c1c(O)c3c(c(O)c1C2=O)C[C@@](O)(C(=O)CO)C[C@@H]3O[C@H]1C[C@H](N)[C@H](O)[C@H](C)O1 [DOXORUBICIN]
IC50 [1]: 240 nM | IC50 [2]: 250 nM | IC50 [3]: 400 nM | IC50 [4]: 220 nM

SMILES: C/C=C/Cc1c(O)cc(=O)oc1C
IC50 [3]: > 100000 nM

SMILES: C#CCOCC/C=C/C(=O)c1c(OC)cc(=O)oc1C
Activity [5]: Active | IC50 [3]: 2300 nM

SMILES: N[C@@H](CSC(c1ccccc1)(c1ccccc1)c1ccccc1)C(=O)O
Activity [6]: Active
